In patent US4900730A, “Preparation which promotes the absorption of peptides” (priority 1981, dated 1990):
One block for each compound: values may come before it. No end group written: not given here.

What was measured:
[1] = rat, in vivo
Procedure: (§1) The experiment was conducted in the following manner. Sprague Dawley rats (male), weighing 200 to 300 g, were narcotized (after fast for 20 hours) with pentobarbital (50 mg/kg) and thereafter subjected to hypoabdominal incision for a first cannulation at a position about 1.5 cm from anus and also another cannulation at a position 5 cm above the first cannulation. Subsequently, the rectum was internally washed with about 50 ml of isotonic sodium chloride solution kept at 38° C., and samples each of 10 ml were circulated through rectum for 5 minutes (2 ml/minute) to make the concentration in the system constant. Then, 5 ml of each sample was circulated at a flow rate of 2 ml/minute, and samples each of 0.05 ml were collected at intervals of 10 minutes from 0 minute. Each sample was diluted to 5 ml with distilled water and the quantity of medicine disappeared by absorption was determined by UV spectrophotometer.
Quantities of 0.5 W/W % Cefmetazole.Na disappeared by absorption under isotonic and three-fold tonic conditions were determined, respectively, using sodium malate, sodium pyruvate, sodium phosphenolpyruvate, sodium β-hydroxybutyrate, sodium β-hydroxy glutarate, and sodium 2-phospho-D-glycerate.

[2] = Cephalothin concentration in blood after injection through anus (Example 6); type: in vivo, rat; settings: with 6% sodium chloride and 1.0% disodium EDTA mono-ethylate vs 2% Cephalothin.Na control
Procedure: Using 2% solution of Cephalothin.Na (in 0.1M Tris-HCl buffer, pH 8.0) as Control, an injection agent was prepared by adding 6% sodium chloride and 1.0% disodium EDTA mono-ethylate to said solution.

[3] = Rectal circulation: Cephalothin disappeared by absorption (Examples 10-14, 16-18); settings: rat, in vivo
Procedure: The experiments were conducted similarly as in Example 1. […] Each sample was diluted and the quantity of Cephalothin disappeared was determined by UV-spectrophotometer of high-speed liquid chromatography.

[4] = Calcium concentration after intrarectal calcitonin preparation, relative effect (Example 8); type: in vivo, SD rats; settings: after one hour, CVP and CT set at standard value of 1
[5] = Rectal circulation with fatty acids as promoters (Example 15, Example 1 repeated)
Procedure: Absorption effects under conditions with various tonicities were examined.
The experiment was conducted in the following manner.
(The units in the Table are percents.)

[6] = rat, in vivo; remark: listed apart in the source
Procedure: as §1

[7] = rabbit, in vivo, 250 mg/kg
[8] = Penicillin suppositories, concentration in plasma (Example 34); type: in vivo, S.D. male rats; settings: Four fold tonicity suppository with 3.6% NaCl and 5% sodium adipate, intrarectal
Procedure: The dispersion was filled in a silicone tube (inner diameter 2.5 mm) to produce a rod-like suppository of 50 mg as a control suppository.
These suppositories were intrarectally administered to S.D. male rats (weighing about 250 g) and the concentration of Carbenicillin in blood was measured.
The concentration of Carbenicillin in blood was determined on sampled plasma by the use of Sarcina luteus ATCC 9341 in accordance with the conventional method.
The same experiment was effected on Dicloxacillin.Na.

[9] = Table 9, fatty acid 0.1 W/V %, Example 1 repeated, X 1
[10] = Table 9, fatty acid 0.1 W/V %, Example 1 repeated, X 4

quantity of Cefmetazole.Na disappeared by absorption [1]: practically negligible
Compound: CO[C@@]1(NC(=O)CSCC#N)C(=O)N2C(C(=O)O)=C(CSc3nnnn3C)CS[C@@H]21 [Cefmetazole.Na]

concentrations in blood [2]: significantly increased
Cephalothin disappeared by absorption, Osmotic pressure (%) X 1 [3]: 1.2%
Cephalothin disappeared by absorption, Osmotic pressure (%) X 2 [3]: 1.6%
Cephalothin disappeared by absorption, Osmotic pressure (%) X 4 [3]: 3.1%
Cephalothin disappeared by absorption, Osmotic pressure X 1 [3]: 1.2 percents
Cephalothin disappeared by absorption, Osmotic pressure X 2 [3]: 1.6 percents
Cephalothin disappeared by absorption, Osmotic pressure X 4 [3]: 3.1 percents
Compound: CC(=O)OCC1=C(C(=O)O)N2C(=O)[C@@H](NC(=O)Cc3cccs3)[C@H]2SC1 [Cephalothin.Na, reference compound]

Compound: calcitonin (CGNLSTCMLGTYTQDFNKFHTFPQTAIGVGAP; ends and bridges not checked; cysteine pairing not given here; UniProt P01258 85-116, looked up) [CT]
relative effect on calcium concentration, Isotonic ([4]; glucose 0.25M): 1
relative effect on calcium concentration, 6-fold tonic ([4]; glucose 1.5M): 1.67
relative effect on calcium concentration, 3-fold tonic ([4]; glucose […]): 1.05

Compound: CCCCCCCCCCCC(=O)[O-].[Na+] [Sodium laurate, sodium laurate]
medicine disappeared by absorption, Osmotic pressure X 1 [5, 9]: 3.9 percents
medicine disappeared by absorption, Osmotic pressure X 4 [5, 10]: 6.5 percents

Compound: Tuberactinomycin
absorptions through rectum [6]: increased by the presence of EDTA.2Na and sodium chloride

Compound: CCCCCCCCCC(=O)[O-].[Na+] [Sodium caprate, sodium caprate]
medicine disappeared by absorption, Osmotic pressure X 1 [5, 9]: 5.2 percents
medicine disappeared by absorption, Osmotic pressure X 4 [5, 10]: 8.6 percents

medicine disappeared by absorption, Osmotic pressure X 1 ([5]; rat, in vivo): 9.9 percents
medicine disappeared by absorption, Osmotic pressure X 2 ([5]; rat, in vivo): 17.1 percents
medicine disappeared by absorption, Osmotic pressure X 4 ([5]; rat, in vivo): 21.0 percents
Compound: CCCC(=O)O [Butyric acid, butyric acid]

Excreted amount in urine (0-6 hr, %) [7]: 0.8%
Compound: Polymyxin B

Concentration in plasma 5 min. [8]: 4500 ng/mL
Concentration in plasma 10 min. [8]: 15400 ng/mL
Concentration in plasma 20 min. [8]: 10500 ng/mL
Concentration in plasma 30 min. [8]: 7500 ng/mL
Concentration in plasma 60 min. [8]: 4600 ng/mL
Concentration in plasma 90 min. [8]: 2900 ng/mL
Concentration in plasma 120 min. [8]: 900 ng/mL
Compound: Cc1onc(-c2c(Cl)cccc2Cl)c1C(=O)N[C@@H]1C(=O)N2[C@@H]1SC(C)(C)[C@@H]2C(=O)O [Dicloxacillin.Na]

Excreted amount in urine (0-6 hr, %) [7]: 1.0%
Compound: Colistin methane sulfonate sodium [Colistin methanesulfonate sodium]

Concentration in plasma 5 min. [8]: 5000 ng/mL
Concentration in plasma 10 min. [8]: 14700 ng/mL
Concentration in plasma 20 min. [8]: 11500 ng/mL
Concentration in plasma 30 min. [8]: 8900 ng/mL
Concentration in plasma 60 min. [8]: 5100 ng/mL
Concentration in plasma 90 min. [8]: 3100 ng/mL
Concentration in plasma 120 min. [8]: 1600 ng/mL
Compound: CC1(C)S[C@@H]2[C@H](NC(=O)C(C(=O)O)c3ccccc3)C(=O)N2[C@H]1C(=O)O (stereo partly shown) [Carbenicillin.Na]

Compound: CCCCCC(=O)[O-].[Na+] [Sodium caproate, sodium caproate]
medicine disappeared by absorption, Osmotic pressure X 1 [5, 9]: 10.4 percents
medicine disappeared by absorption, Osmotic pressure X 2 ([5]; Table 9, fatty acid 0.1 W/V %, Example 1 repeated, X 2): 14.7 percents
medicine disappeared by absorption, Osmotic pressure X 4 [5, 10]: 17.2 percents

medicine disappeared by absorption, Osmotic pressure X 1 [5, 9]: 5.8 percents
medicine disappeared by absorption, Osmotic pressure X 4 [5, 10]: 13.0 percents
Compound: CCCCCCCC(=O)[O-].[Na+] [Sodium caprylate, sodium caprylate]
